Assay [1] addresses T1, human TRPV1 (Homo sapiens (Human), UniProt Q8NER1). Description: Capsaicin Activation Assay (intracellular Ca2+, FLIPR). It counts as cell-based. The conditions noted are these: recombinant HEK293 cells expressing hTRPV1, 50 nM capsaicin. In outline: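 Ca2+ fluorescence was recorded by FLIPR every 1 to 5 seconds in HEK293 cells, clonally selected for stable human TRPV1 expression and plated one day ahead. Test compounds came as serial dilutions of 10 mM DMSO stocks.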

The subject of another assay is rats. Description: Sodium iodoacetate-induced knee joint osteoarthritic pain model (hind limb grip force). It counts as in vivo. The settings on record: rat, po, single acute dose, 1 hour after administration, 20 days after sodium iodoacetate, read-out: % effect (% return to normalcy of hind limb grip force). The procedure: Unilateral knee joint osteoarthritis was induced in the rats by a single intra-articular (i.a.) injection of sodium iodoacetate (3 mg in 0.05 mL sterile isotonic saline) into the right knee joint cavity under light isoflurane anesthesia using a 26 G needle. […] Pain behavioral assessment of hind limb grip force was conducted by recording the maximum compressive force exerted on the hind limb strain gauge setup, in a commercially available grip force measurement system (Columbus Instruments, Columbus, Ohio). The grip force data was converted to a maximum hindlimb cumulative compressive force (CFmax) (gram force)/kg body weight for each animal. The analgesic effects of test compounds were determined 20 days following the i.a. injection of sodium iodoacetate. The vehicle control group for each compound being tested was assigned 0% whereas the age matched naïve group was assigned as being 100% (normal). The % effect for each dose group was then expressed as % return to normalcy compared to the naïve group. Test compounds were administered orally in 10% ethanol/20% Tween 80/70% polyethylene glycol-400 vehicle at a volume of 2 mL/kg. The assessment of the analgesic effects of test compounds was made 1 hour following oral administration. The assessment of the analgesic effects of test compounds can be made following a single dose or following repeated administration wherein the frequency of dosing is 1 to 2 times daily. The duration of such repeated daily dosing may last for any time greater than one day. A typical duration of repeated daily dosing is about 5 days to about 12 days.

Assay [2] concerns the target T1, human TRPV1. Description: Acid Activation Assay (pH 5.0, intracellular Ca2+, FLIPR). Format: cell-based. The conditions noted are these: percentage of the maximal pH 5.0-induced response remaining; recombinant HEK293 hTRPV1 cells; maximum concentration tested 37.5 μM. In outline:
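Readout: peak [Ca2+]i fluorescence over baseline on FLIPR, expressed as percentage remaining of the maximal pH 5.0-evoked signal. Stable hTRPV1-HEK293 cells with Calcium-4 dye received compound (12 half-log concentrations, maximum 37.5 μM) 3 min before acidic pH 5.0 buffer.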

Experimental findings from patent US8969325B2, “TRPV1 antagonists” (AbbVie Inc., priority 2011, dated 2015) are described below.

T1 sequence (Q8NER1 whole entry): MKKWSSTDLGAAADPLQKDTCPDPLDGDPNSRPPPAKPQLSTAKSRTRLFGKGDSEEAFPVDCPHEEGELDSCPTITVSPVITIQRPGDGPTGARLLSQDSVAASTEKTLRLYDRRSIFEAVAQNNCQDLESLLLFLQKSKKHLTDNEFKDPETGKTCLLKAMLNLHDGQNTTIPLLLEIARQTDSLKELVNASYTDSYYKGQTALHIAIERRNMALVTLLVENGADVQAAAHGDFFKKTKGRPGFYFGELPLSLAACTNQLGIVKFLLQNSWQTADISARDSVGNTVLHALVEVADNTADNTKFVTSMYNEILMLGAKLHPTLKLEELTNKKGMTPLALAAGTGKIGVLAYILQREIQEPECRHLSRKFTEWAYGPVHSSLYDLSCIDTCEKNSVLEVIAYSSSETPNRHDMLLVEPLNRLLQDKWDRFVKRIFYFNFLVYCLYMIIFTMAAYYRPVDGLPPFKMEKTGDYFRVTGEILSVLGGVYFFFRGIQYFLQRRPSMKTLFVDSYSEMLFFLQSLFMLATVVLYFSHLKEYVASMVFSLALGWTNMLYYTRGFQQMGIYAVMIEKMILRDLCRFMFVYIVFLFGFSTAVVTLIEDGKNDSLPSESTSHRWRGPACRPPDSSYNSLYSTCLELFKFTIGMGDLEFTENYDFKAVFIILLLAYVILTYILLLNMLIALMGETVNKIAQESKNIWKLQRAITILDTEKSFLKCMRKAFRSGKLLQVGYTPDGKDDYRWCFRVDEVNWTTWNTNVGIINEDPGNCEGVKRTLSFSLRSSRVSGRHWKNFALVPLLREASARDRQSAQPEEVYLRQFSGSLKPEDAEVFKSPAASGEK

As usually defined, the IC50 is the point on the concentration scale where inhibition reaches its midpoint. With `CN1C(=O)NCc2c(NC(=O)N[C@@H]3CC(CF)(CF)Oc4cc(Cl)ccc43)cccc21` [Example 2, 1-[(4R)-7-chloro-2,2-bis(fluoromethyl)-3,4-dihydro-2H-chromen-4-yl]-3-(1-methyl-2-oxo-1,2,3,4-tetrahydroquinazolin-5-yl)urea], at human TRPV1 [1], the IC50 came out at 36 nM. The inhibition in vivo at 14 mg/kg in the assay with rats (14 mg/kg) worked out at 36%. For the same compound, at human TRPV1 [2], the “human TRPV1 H^+ (max % remain)” value came to 21%.
Turning to `CN1C(=O)NCc2c(NC(=O)N[C@@H]3C[C@@](C)(C(F)F)Oc4ccccc43)cccc21` [Example 13, 1-[(2S,4R)-2-(difluoromethyl)-2-methyl-3,4-dihydro-2H-chromen-4-yl]-3-(1-methyl-2-oxo-1,2,3,4-tetrahydroquinazolin-5-yl)urea], the 50% inhibitory concentration (IC50) on human TRPV1 [1] came out at 53 nM. Further, in the assay on rats (12 mg/kg), the inhibition in vivo at 12 mg/kg came out at 63%. Also, the “human TRPV1 H^+ (max % remain)” value on human TRPV1 [2] is reported as 41%.
For the compound `O=C1CCc2ccc(NC(=O)N[C@@H]3CC(CF)(CF)Oc4cc(Cl)ccc43)cc2N1` [Example 31, 1-[(4R)-7-chloro-2,2-bis(fluoromethyl)-3,4-dihydro-2H-chromen-4-yl]-3-(2-oxo-1,2,3,4-tetrahydroquinolin-7-yl)urea], the inhibition in vivo at 10 mg/kg in the assay with rats amounted to 24%. Also, the “human TRPV1 H^+ (max % remain)” value at human TRPV1 [2] worked out at 36%.
For `CC1(C)C[C@@H](NC(=O)Nc2ccc3c(c2)NC(=O)CC3)c2ccc(C(F)(F)F)cc2O1` [Example 32, 1-[(4R)-2,2-dimethyl-7-(trifluoromethyl)-3,4-dihydro-2H-chromen-4-yl]-3-(2-oxo-1,2,3,4-tetrahydroquinolin-7-yl)urea], the half-maximal inhibitory concentration (IC50) on human TRPV1 [1] turned out to be 36 nM. In addition, in the assay on rats, the inhibition in vivo at 10 mg/kg was found to be 22%. In addition, the “human TRPV1 H^+ (max % remain)” value at human TRPV1 [2] was determined as 37%.
On the same counts, the results for `C[C@]1(C(F)(F)F)C[C@@H](NC(=O)Nc2ccc3c(c2)NC(=O)CC3)c2ccccc2O1` [Example 34, 1-[(2R,4R)-2-methyl-2-(trifluoromethyl)-3,4-dihydro-2H-chromen-4-yl]-3-(2-oxo-1,2,3,4-tetrahydroquinolin-7-yl)urea] are 7 nM, 46% and 34%.
The like results for `O=C1CCc2ccc(NC(=O)N[C@@H]3CCc4cc(C(F)(F)F)ccc43)cc2N1` [Example 35, 1-(2-oxo-1,2,3,4-tetrahydroquinolin-7-yl)-3-[(1R)-5-(trifluoromethyl)-2,3-dihydro-1H-inden-1-yl]urea] were, in that order, 4 nM, 42% and 38%.
On to `CC1(C)C[C@@H](NC(=O)Nc2ccc3c(c2)NC(=O)CC3)c2ccc(Cl)c(F)c2O1` [Example 39, 1-[(4R)-7-chloro-8-fluoro-2,2-dimethyl-3,4-dihydro-2H-chromen-4-yl]-3-(2-oxo-1,2,3,4-tetrahydroquinolin-7-yl)urea], for which, on human TRPV1 [1], the IC50 is 14 nM. Also, in the assay on rats, the inhibition in vivo at 10 mg/kg is 50%. Further, at human TRPV1 [2], the “human TRPV1 H^+ (max % remain)” value was 34%.
On the same counts, the results for `CCC1(CC)C[C@@H](NC(=O)Nc2ccc3c(c2)NC(=O)CC3)c2cccc(F)c2O1` [Example 222, 1-[(4R)-2,2-diethyl-8-fluoro-3,4-dihydro-2H-chromen-4-yl]-3-(2-oxo-1,2,3,4-tetrahydroquinolin-7-yl)urea] are 32 nM, 26% and 30%.
The like results for `O=C1CCc2ccc(NC(=O)N[C@@H]3CCc4cc(Cl)ccc43)cc2N1` [Example 251, 1-[(1R)-5-chloro-2,3-dihydro-1H-inden-1-yl]-3-(2-oxo-1,2,3,4-tetrahydroquinolin-7-yl)urea] were, in that order, 78 nM, 38% and 26%.
For the compound `O=C(Nc1ccc2c(c1)NC(=O)N(CCO)C2)N[C@@H]1CC(CF)(CF)Oc2c(F)cccc21` [Example 315, 1-[(4R)-8-fluoro-2,2-bis(fluoromethyl)-3,4-dihydro-2H-chromen-4-yl]-3-[3-(2-hydroxyethyl)-2-oxo-1,2,3,4-tetrahydroquinazolin-7-yl]urea], the IC50 on human TRPV1 [1] is 830 nM. Further, the “human TRPV1 H^+ (max % remain)” value on human TRPV1 [2] was found to be 18%.
On the same counts, the results for `O=C(Nc1ccc2c(c1)NC(=O)N(CCO)C2)N[C@@H]1CC(CF)(CF)Oc2cc(Cl)ccc21` [Example 316, 1-[(4R)-7-chloro-2,2-bis(fluoromethyl)-3,4-dihydro-2H-chromen-4-yl]-3-[3-(2-hydroxyethyl)-2-oxo-1,2,3,4-tetrahydroquinazolin-7-yl]urea] are 1900 nM and 20%.
On the same counts, the results for `O=C(Nc1ccc2c(c1)NC(=O)N(CCO)C2)N[C@@H]1CC2(CCCC2)Oc2ccccc21` [Example 317, 1-[(4R)-3,4-dihydrospiro[chromene-2,1′-cyclopentan]-4-yl]-3-[3-(2-hydroxyethyl)-2-oxo-1,2,3,4-tetrahydroquinazolin-7-yl]urea] are 600 nM and 17%.
The like results for `C[C@@]1(C(F)F)C[C@@H](NC(=O)Nc2ccc3c(c2)NC(=O)N(CCO)C3)c2ccccc2O1` [Example 318, 1-[(2S,4R)-2-(difluoromethyl)-2-methyl-3,4-dihydro-2H-chromen-4-yl]-3-[3-(2-hydroxyethyl)-2-oxo-1,2,3,4-tetrahydroquinazolin-7-yl]urea] were, in that order, 590 nM and 14%.
For the compound `O=C(Nc1ccc2c(c1)NC(=O)N(CCO)C2)N[C@@H]1CC(CF)(CF)Oc2cc(F)ccc21` [Example 319, 1-[(4R)-7-fluoro-2,2-bis(fluoromethyl)-3,4-dihydro-2H-chromen-4-yl]-3-[3-(2-hydroxyethyl)-2-oxo-1,2,3,4-tetrahydroquinazolin-7-yl]urea], the IC50 at human TRPV1 [1] turned out to be 5000 nM. In addition, the “human TRPV1 H^+ (max % remain)” value on human TRPV1 [2] amounted to 21%.
On the same counts, the results for `O=C1CCc2ccc(NC(=O)N[C@@H]3CC(CF)(CF)Oc4cc(C(F)(F)F)ccc43)cc2N1` [Example 320, 1-[(4R)-2,2-bis(fluoromethyl)-7-(trifluoromethyl)-3,4-dihydro-2H-chromen-4-yl]-3-(2-oxo-1,2,3,4-tetrahydroquinolin-7-yl)urea] are 12 nM and 80%.
Take `C[C@]1(C(F)F)C[C@@H](NC(=O)Nc2ccc3c(c2)NC(=O)CO3)c2ccc(Cl)cc2O1` [Example 321, 1-[(2R,4R)-7-chloro-2-(difluoromethyl)-2-methyl-3,4-dihydro-2H-chromen-4-yl]-3-(3-oxo-3,4-dihydro-2H-1,4-benzoxazin-6-yl)urea]: the IC50 at human TRPV1 [1] worked out at 21 nM. In addition, the inhibition in vivo at 10 mg/kg in the assay with rats was 31%. At human TRPV1 [2], the “human TRPV1 H^+ (max % remain)” value came out at 87%.
`C[C@@]1(C(F)F)C[C@@H](NC(=O)Nc2ccc3c(c2)NC(=O)CO3)c2ccc(Cl)cc2O1` [Example 322, 1-[(2S,4R)-7-chloro-2-(difluoromethyl)-2-methyl-3,4-dihydro-2H-chromen-4-yl]-3-(3-oxo-3,4-dihydro-2H-1,4-benzoxazin-6-yl)urea]: the IC50 at human TRPV1 [1] worked out at 46 nM. Further, the “human TRPV1 H^+ (max % remain)” value at human TRPV1 [2] is given as 76%.
In the case of `O=C1COc2c(cccc2NC(=O)N[C@@H]2CC(CF)(CF)Oc3cc(Cl)ccc32)N1` [Example 323, 1-[(4R)-7-chloro-2,2-bis(fluoromethyl)-3,4-dihydro-2H-chromen-4-yl]-3-(3-oxo-3,4-dihydro-2H-1,4-benzoxazin-8-yl)urea], on human TRPV1 [1], the IC50 is 4.5 nM. Further, the “human TRPV1 H^+ (max % remain)” value on human TRPV1 [2] came out at 0%.
The like results for `CC1(C)C[C@@H](NC(=O)Nc2ccc3c(c2)NC(=O)CO3)c2ccc(Cl)c(F)c2O1` [Example 325, 1-[(4R)-7-chloro-8-fluoro-2,2-dimethyl-3,4-dihydro-2H-chromen-4-yl]-3-(3-oxo-3,4-dihydro-2H-1,4-benzoxazin-6-yl)urea] were, in that order, 21 nM and 83%.
The like results for `CN1C(=O)CCc2ccc(NC(=O)N[C@@H]3C[C@](C)(C(F)(F)F)Oc4ccccc43)cc21` [Example 326, 1-(1-methyl-2-oxo-1,2,3,4-tetrahydroquinolin-7-yl)-3-[(2R,4R)-2-methyl-2-(trifluoromethyl)-3,4-dihydro-2H-chromen-4-yl]urea] were, in that order, 32 nM and 80%.
